Broadly, the IC50 is the concentration that inhibits the measured activity by half.

The target in test [1] is T1, purified human platelet fibrinogen receptor (GPIIb/IIIa) (Homo sapiens, UniProt P05106+P08514).
T1 construct: Glycoprotein IIb/IIIa is isolated from human platelet lysates; from tissue
As to the kind of experiment: test (b): GPIIb/IIIa ELISA, inhibition of biotinylated fibrinogen binding. Conditions: biotinylated fibrinogen 10 nM, read-out: pIC50 (-log(IC50)), inhibition of biotinylated fibrinogen binding in test (b) (converted). On the procedure:
(i) Preparation of human platelet lysates. Platelet rich plasma (PRP) is harvested by centrifugation (1000 rpm, 15 minutes) of whole blood anticoagulated with acid citrate dextrose (trisodium citrate 85 mM, citric acid 70 mM, d-glucose 110 mM) 1 part to 6 parts blood. Prostacyclin (PGI2, 1 μM) is added to the PRP before centrifugation (2400 rpm, 15 mins) and the resulting pellet is resuspended in modified Tyrodes' solution (NACl 130 mM, […], NaHCO3 12 mM, NaH2 PO4 0.5 mM, MgCl2 1 mM, […], Glucose 12 mM, HEPES 5 mM) containing bovine serum albumin 3.5 g/L, PGI2 1 μM and hirudin 0.5 U/ml. The platelet suspension is centrifuged (2400 rpm, 15 minutes) and the resultant pellet resuspended in 500 μl of lysis buffer (octyl glucoside 50 mM, HEPES 10 mM, NaCl 150 mM, CaCl2 1 mM, MgCl2 1 mM, PMSF 1 mM, NEM 10 mM, leupeptin 0.1 mM), agitated at 4° C. for 15 minutes then centrifuged at 24000 rpm, 15 minutes. The supernatant is stored at 4° C. and the pellet re-suspended in 500 μl of lysis buffer. […]
(iii) GPIIb/IIIa ELISA 96 well microtitre plates are coated with 100 μl purified human platelet fibrinogen receptor (GPIIb/IIIa) diluted in coating buffer (Tris-HCl 20 mM, NaCl 150 mM, CaCl2 1 mM, pH7.4) and left overnight at 4° C. […] Colour is allowed to develop for 10-15 minutes before optical densities are read at 650 nm. […]
In general terms: An ELISA detects its analyte on a solid surface through an enzyme-linked reagent.

Test [2] concerns ADP stimulated platelet aggregation in human, citrated, platelet-rich plasma. In words: test (a): inhibition of ADP-induced aggregation of human platelet-rich plasma (Born). The format is cell-based. The note with it: ADP as agonist. The text has this: (i) aggregating human, citrated, platelet-rich plasma by addition of adenosine diphosphate (ADP) so as to generate a dose-response curve;
(ii) generating a dose-response curve for ADP stimulated platelet aggregation in the presence of increasing amounts of a test compound (generally in the range 10^-5 M to 10^-10 M); and
(iii) calculating a pA2 value indicating potency of platelet aggregation inhibition for the test compound, averaged over several concentrations, from the calculated 50% response value for ADP aggregation in the presence and absence of the test compound.

Test [3] deals with aggregation of human blood platelets. As to the kind of experiment: test (a) modified, ex vivo after oral dosing to dogs. The format is in vivo. Conditions: 1 mg/kg. As to the method: Test (a) may be modified so as to assess the effects of a test compound ex vivo on the aggregation of human blood platelets after administration of the test compound to a laboratory animal, such as a rat, rabbit, guinea pig, mouse or dog. For example, groups of four male, fasted Alderley Park Wistar rats are orally dosed with a test compound or appropriate vehicle, and at suitable time intervals (1, 3, 5 and 8 hours after dosing) animals are anaesthetised with fluothane and bled by heart puncture. Blood is collected into 3.2% citrate (1 part to 9 parts whole blood) and platelet poor plasma (ppp) prepared by centrifugation (4500×g for 10 minutes). […]
Equal volumes (125 μl) of rat ppp and human prp are mixed together, ADP added, and the whole incubated (37° C.) and stirred (900 rpm) in a BioData platelet aggregometer. Aggregation is induced with ADP and agonist EC50 values calculated for human prp/rat ppp mixtures from animals dosed with test compound or vehicle. A mean concentration ratio (concentration of ADP required to cause a 50% aggregation response in human prp/rat ppp mixtures from animals dosed with antagonist, divided by the concentration of ADP to cause 50% aggregation in human prp/rat ppp mixtures from animals dosed with vehicle) is calculated at each time point.

T1 sequence (P08514 32-887 limits assumed): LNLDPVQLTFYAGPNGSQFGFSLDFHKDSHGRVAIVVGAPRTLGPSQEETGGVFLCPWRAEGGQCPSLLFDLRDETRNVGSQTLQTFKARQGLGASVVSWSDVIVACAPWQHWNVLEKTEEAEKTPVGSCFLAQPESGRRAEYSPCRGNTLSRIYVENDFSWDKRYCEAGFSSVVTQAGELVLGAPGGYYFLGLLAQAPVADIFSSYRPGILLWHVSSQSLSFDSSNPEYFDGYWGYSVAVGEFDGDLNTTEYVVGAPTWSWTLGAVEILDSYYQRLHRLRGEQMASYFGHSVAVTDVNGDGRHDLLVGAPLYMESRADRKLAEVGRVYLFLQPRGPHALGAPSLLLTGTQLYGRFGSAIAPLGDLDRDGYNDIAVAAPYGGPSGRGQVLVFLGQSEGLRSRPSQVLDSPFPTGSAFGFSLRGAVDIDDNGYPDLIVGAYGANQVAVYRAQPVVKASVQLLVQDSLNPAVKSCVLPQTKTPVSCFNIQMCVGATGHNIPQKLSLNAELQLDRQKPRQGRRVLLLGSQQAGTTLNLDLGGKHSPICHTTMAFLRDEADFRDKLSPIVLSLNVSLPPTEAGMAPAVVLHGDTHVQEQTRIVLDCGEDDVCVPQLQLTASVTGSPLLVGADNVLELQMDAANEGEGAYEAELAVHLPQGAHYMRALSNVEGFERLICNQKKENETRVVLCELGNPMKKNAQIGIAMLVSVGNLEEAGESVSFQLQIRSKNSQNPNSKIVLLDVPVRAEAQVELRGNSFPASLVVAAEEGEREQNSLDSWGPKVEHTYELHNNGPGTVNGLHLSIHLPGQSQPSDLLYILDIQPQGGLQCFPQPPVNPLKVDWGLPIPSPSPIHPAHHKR
T1 sequence (P08514 891-1039 limits assumed): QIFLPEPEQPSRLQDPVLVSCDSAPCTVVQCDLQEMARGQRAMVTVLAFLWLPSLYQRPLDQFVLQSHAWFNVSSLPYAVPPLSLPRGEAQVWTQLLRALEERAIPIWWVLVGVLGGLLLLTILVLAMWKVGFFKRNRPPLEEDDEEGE
T1 sequence (P05106 27-788): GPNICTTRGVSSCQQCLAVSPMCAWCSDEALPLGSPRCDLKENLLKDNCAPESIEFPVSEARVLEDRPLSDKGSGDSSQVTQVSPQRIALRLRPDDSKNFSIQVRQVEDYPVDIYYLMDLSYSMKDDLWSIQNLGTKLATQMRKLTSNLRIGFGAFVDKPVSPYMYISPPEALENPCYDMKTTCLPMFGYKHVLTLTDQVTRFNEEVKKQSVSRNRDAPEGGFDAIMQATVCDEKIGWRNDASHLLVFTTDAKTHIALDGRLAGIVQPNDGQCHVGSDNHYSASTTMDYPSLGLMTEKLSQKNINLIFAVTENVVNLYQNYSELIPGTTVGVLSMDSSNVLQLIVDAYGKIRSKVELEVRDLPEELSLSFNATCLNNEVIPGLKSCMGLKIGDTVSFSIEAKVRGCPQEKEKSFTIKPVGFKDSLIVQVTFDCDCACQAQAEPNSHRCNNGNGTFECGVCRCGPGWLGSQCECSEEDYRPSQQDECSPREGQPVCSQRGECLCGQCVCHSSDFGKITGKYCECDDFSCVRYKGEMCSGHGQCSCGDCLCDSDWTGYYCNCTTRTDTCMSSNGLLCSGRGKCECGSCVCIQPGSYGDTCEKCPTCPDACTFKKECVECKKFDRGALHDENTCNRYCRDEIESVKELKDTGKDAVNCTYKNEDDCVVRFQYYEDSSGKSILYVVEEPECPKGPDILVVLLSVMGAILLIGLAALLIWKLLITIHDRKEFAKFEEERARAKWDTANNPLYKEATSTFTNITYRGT

In the case of `COC(=O)COc1ccc(NC(=O)NC(=O)c2ccc(C(=N)N)cc2)cc1` [Example 1, Methyl 4-[3-(4-amidinobenzoyl)ureido]phenoxyacetate], the 50% inhibitory concentration (IC50) in test [1] was 0.316 µM. Also, the “pA2, potency of platelet aggregation inhibition in test (a)” value in test [2] is listed as 7.6.

Consider `CC(C)(C)OC(=O)COc1ccc(NC(=O)NC(=O)c2ccc(C(=N)N)cc2)cc1` [Example 2, t-Butyl 4-[3-(4-amidinobenzoyl)ureido]phenoxyacetate], for which the “duration of activity when dosed orally” value in test [3] was “up to 8 hours”.

As to `N=C(N)c1ccc(C(=O)NC(=O)Nc2ccc(OCC(=O)O)cc2)cc1` [Example 3, 4-[3-(4-Amidinobenzoyl)ureido]phenoxyacetic acid], the IC50 in test [1] is 0.00251 µM. In test [2], the “pA2, potency of platelet aggregation inhibition in test (a)” value is listed as 8.4.

The values above are taken from patent US5576334A, “Acylurea derivatives” (Zeneca Limited, priority 1993, dated 1996).
